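Grown in 96-well plates, cells were treated for 48 hours with each compound at five concentrations. Insufficient inhibition: endpoint recorded as highest concentration tested. At the GI50, growth is halved.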 The source made the active and inactive calls. Cut-off read from the data, not from the text of the source: active = GI50 up to about 1.1 µM and inactive = higher.
Key:
Test in all cases: growth of human tumour cells (NCI), 48 h
786-0 = tested on: 786-0
A549 = tested on: A549
ACHN = tested on: ACHN
CAKI-1 = tested on: CAKI-1
CCRF-CEM = tested on: CCRF-CEM
COLO 205 = tested on: COLO 205
EKVX = tested on: EKVX
HCC 2998 = tested on: HCC 2998
HCT-116 = tested on: HCT-116
HCT-15 = tested on: HCT-15
HL-60 = tested on: HL-60
HOP-62 = tested on: HOP-62
HOP-92 = tested on: HOP-92
HT-29 = tested on: HT-29
IGROV-1 = tested on: IGROV-1
K562 = tested on: K562
KM-20L2 = tested on: KM-20L2
KM12 = tested on: KM12
LOX IMVI = tested on: LOX IMVI
LXFL 529 = tested on: LXFL 529
M14 = tested on: M14
M19-MEL = tested on: M19-MEL
MOLT-4 = tested on: MOLT-4
Malme-3M = tested on: Malme-3M
NCI-H226 = tested on: NCI-H226
NCI-H23 = tested on: NCI-H23
NCI-H460 = tested on: NCI-H460
NCI-H522 = tested on: NCI-H522
OVCAR-3 = tested on: OVCAR-3
OVCAR-4 = tested on: OVCAR-4
OVCAR-5 = tested on: OVCAR-5
OVCAR-8 = tested on: OVCAR-8
RPMI-8226 = tested on: RPMI-8226
SF-268 = tested on: SF-268
SF-295 = tested on: SF-295
SF-539 = tested on: SF-539
SK-MEL-28 = tested on: SK-MEL-28
SK-MEL-2 = tested on: SK-MEL-2
SK-MEL-5 = tested on: SK-MEL-5
SK-OV-3 = tested on: SK-OV-3
SN12C = tested on: SN12C
SNB-19 = tested on: SNB-19
SNB-78 = tested on: SNB-78
SR = tested on: SR
SW-620 = tested on: SW-620
TK-10 = tested on: TK-10
U-251 = tested on: U-251
UACC-257 = tested on: UACC-257
UACC-62 = tested on: UACC-62
UO-31 = tested on: UO-31
XF498 = tested on: XF498
A498 = tested on: A498
DLD-1 = tested on: DLD-1
DMS-114 = tested on: DMS-114
HOP-18 = tested on: HOP-18
RXF 393 = tested on: RXF 393
DMS-273 = tested on: DMS-273
SNB-75 = tested on: SNB-75

SMILES: O=C(Cc1nc2c3c(ccc2nc1O)C(=O)c1ccccc1C3=O)C(=O)Nc1ccccc1[N+](=O)[O-]
- GI50 (786-0): 15.3 µM (inactive)
- GI50 (A549): 49.4 µM (inactive)
- GI50 (ACHN): 15.7 µM (inactive)
- GI50 (CAKI-1): 21.5 µM (inactive)
- GI50 (CCRF-CEM): 2.51 µM (inactive)
- GI50 (COLO 205): 15.2 µM (inactive)
- GI50 (EKVX): 17.5 µM (inactive)
- GI50 (HCC 2998): 19.1 µM (inactive)
- GI50 (HCT-116): 26.6 µM (inactive)
- GI50 (HCT-15): > 10 µM
- GI50 (HL-60): 14.5 µM (inactive)
- GI50 (HOP-62): 18.3 µM (inactive)
- GI50 (HOP-92): 20.7 µM (inactive)
- GI50 (HT-29): 19.5 µM (inactive)
- GI50 (IGROV-1): 29.6 µM (inactive)
- GI50 (K562): 12.6 µM (inactive)
- GI50 (KM-20L2): 19.6 µM (inactive)
- GI50 (KM12): 18.7 µM (inactive)
- GI50 (LOX IMVI): 16.5 µM (inactive)
- GI50 (LXFL 529): 4.24 µM (inactive)
- GI50 (M14): 16.3 µM (inactive)
- GI50 (M19-MEL): 22.2 µM (inactive)
- GI50 (MOLT-4): 4.22 µM (inactive)
- GI50 (Malme-3M): 19.1 µM (inactive)
- GI50 (NCI-H226): 20.6 µM (inactive)
- GI50 (NCI-H23): 18.5 µM (inactive)
- GI50 (NCI-H460): 31.9 µM (inactive)
- GI50 (NCI-H522): 5.27 µM (inactive)
- GI50 (OVCAR-3): 11.5 µM (inactive)
- GI50 (OVCAR-4): 13.2 µM (inactive)
- GI50 (OVCAR-5): 21.5 µM (inactive)
- GI50 (OVCAR-8): 17.1 µM (inactive)
- GI50 (RPMI-8226): 11.4 µM (inactive)
- GI50 (SF-268): 14.4 µM (inactive)
- GI50 (SF-295): > 10 µM (inactive)
- GI50 (SF-539): 17.6 µM (inactive)
- GI50 (SK-MEL-28): 16.1 µM (inactive)
- GI50 (SK-MEL-2): 19.1 µM (inactive)
- GI50 (SK-MEL-5): 18.3 µM (inactive)
- GI50 (SK-OV-3): 60 µM (inactive)
- GI50 (SN12C): > 10 µM (inactive)
- GI50 (SNB-19): 16.6 µM (inactive)
- GI50 (SNB-78): 4.22 µM (inactive)
- GI50 (SR): 11.7 µM (inactive)
- GI50 (SW-620): 12.3 µM (inactive)
- GI50 (TK-10): 24.2 µM (inactive)
- GI50 (U-251): 17.7 µM (inactive)
- GI50 (UACC-257): 17.7 µM (inactive)
- GI50 (UACC-62): 25.6 µM (inactive)
- GI50 (UO-31): 27.5 µM (inactive)
- GI50 (XF498): 12.6 µM (inactive)

SMILES: Cc1no[n+]([O-])c1/C=N/NS(=O)(=O)c1ccccc1
- GI50 (786-0): > 100 µM (inactive)
- GI50 (A498): 75.3 µM (inactive)
- GI50 (A549): > 100 µM (inactive)
- GI50 (CAKI-1): > 100 µM (inactive)
- GI50 (CCRF-CEM): > 10 µM (inactive)
- GI50 (COLO 205): > 100 µM (inactive)
- GI50 (DLD-1): > 100 µM (inactive)
- GI50 (DMS-114): > 100 µM (inactive)
- GI50 (EKVX): > 100 µM (inactive)
- GI50 (HCC 2998): > 100 µM (inactive)
- GI50 (HCT-116): > 100 µM (inactive)
- GI50 (HCT-15): > 100 µM
- GI50 (HL-60): > 100 µM (inactive)
- GI50 (HOP-18): > 100 µM (inactive)
- GI50 (HOP-62): > 100 µM (inactive)
- GI50 (HOP-92): > 100 µM (inactive)
- GI50 (HT-29): > 100 µM (inactive)
- GI50 (IGROV-1): > 100 µM (inactive)
- GI50 (K562): > 100 µM (inactive)
- GI50 (KM-20L2): > 100 µM (inactive)
- GI50 (KM12): > 100 µM (inactive)
- GI50 (LXFL 529): > 100 µM (inactive)
- GI50 (M14): > 100 µM (inactive)
- GI50 (M19-MEL): > 100 µM (inactive)
- GI50 (MOLT-4): > 100 µM (inactive)
- GI50 (Malme-3M): > 100 µM (inactive)
- GI50 (NCI-H23): > 100 µM (inactive)
- GI50 (NCI-H522): > 100 µM (inactive)
- GI50 (OVCAR-3): > 100 µM (inactive)
- GI50 (OVCAR-4): > 100 µM (inactive)
- GI50 (OVCAR-5): > 100 µM (inactive)
- GI50 (OVCAR-8): > 100 µM (inactive)
- GI50 (RPMI-8226): > 100 µM (inactive)
- GI50 (RXF 393): > 100 µM (inactive)
- GI50 (SF-268): > 100 µM (inactive)
- GI50 (SF-539): > 100 µM (inactive)
- GI50 (SK-MEL-28): > 100 µM (inactive)
- GI50 (SK-MEL-2): > 100 µM (inactive)
- GI50 (SK-MEL-5): > 100 µM (inactive)
- GI50 (SK-OV-3): > 100 µM (inactive)
- GI50 (SN12C): > 100 µM (inactive)
- GI50 (SNB-19): > 100 µM (inactive)
- GI50 (SR): > 100 µM (inactive)
- GI50 (SW-620): > 100 µM (inactive)
- GI50 (TK-10): > 100 µM (inactive)
- GI50 (U-251): > 100 µM (inactive)
- GI50 (UACC-62): > 100 µM (inactive)
- GI50 (UO-31): > 100 µM (inactive)

SMILES: O=c1/c(=C/c2cccc([N+](=O)[O-])c2)sc2nc3ccccc3n12
- GI50 (786-0): > 100 µM (inactive)
- GI50 (A498): > 100 µM (inactive)
- GI50 (A549): > 10 µM (inactive)
- GI50 (ACHN): 84.7 µM (inactive)
- GI50 (CAKI-1): > 10 µM (inactive)
- GI50 (CCRF-CEM): > 100 µM (inactive)
- GI50 (DLD-1): > 100 µM (inactive)
- GI50 (DMS-114): > 100 µM (inactive)
- GI50 (DMS-273): > 100 µM (inactive)
- GI50 (EKVX): 58.7 µM (inactive)
- GI50 (HCC 2998): 50.8 µM (inactive)
- GI50 (HCT-116): 37.3 µM (inactive)
- GI50 (HCT-15): > 100 µM
- GI50 (HL-60): > 100 µM (inactive)
- GI50 (HOP-62): > 100 µM (inactive)
- GI50 (HOP-92): > 10 µM (inactive)
- GI50 (HT-29): > 100 µM (inactive)
- GI50 (IGROV-1): > 10 µM (inactive)
- GI50 (K562): > 100 µM (inactive)
- GI50 (KM-20L2): > 10 µM (inactive)
- GI50 (KM12): > 100 µM (inactive)
- GI50 (LOX IMVI): 6.73 µM (inactive)
- GI50 (LXFL 529): > 100 µM (inactive)
- GI50 (M14): 55.1 µM (inactive)
- GI50 (M19-MEL): > 100 µM (inactive)
- GI50 (Malme-3M): > 100 µM (inactive)
- GI50 (NCI-H226): > 100 µM (inactive)
- GI50 (NCI-H23): > 100 µM (inactive)
- GI50 (NCI-H460): > 100 µM (inactive)
- GI50 (OVCAR-3): > 10 µM (inactive)
- GI50 (OVCAR-4): 52.4 µM (inactive)
- GI50 (OVCAR-5): > 100 µM (inactive)
- GI50 (OVCAR-8): > 100 µM (inactive)
- GI50 (RXF 393): > 100 µM (inactive)
- GI50 (SF-268): 39.2 µM (inactive)
- GI50 (SF-295): > 10 µM (inactive)
- GI50 (SK-MEL-28): 35.6 µM (inactive)
- GI50 (SK-MEL-2): > 100 µM (inactive)
- GI50 (SK-MEL-5): > 10 µM (inactive)
- GI50 (SK-OV-3): 67.8 µM (inactive)
- GI50 (SN12C): > 100 µM (inactive)
- GI50 (SNB-19): > 10 µM (inactive)
- GI50 (SNB-75): 32.8 µM (inactive)
- GI50 (SNB-78): > 100 µM (inactive)
- GI50 (SW-620): > 100 µM (inactive)
- GI50 (TK-10): > 100 µM (inactive)
- GI50 (U-251): > 10 µM (inactive)
- GI50 (UACC-257): 4.71 µM (inactive)
- GI50 (UACC-62): 0.446 µM (active)
- GI50 (UO-31): > 100 µM (inactive)
- GI50 (XF498): > 100 µM (inactive)

Source: ChEMBL document CHEMBL1201862, “PubChem BioAssay data set” (2004)
